Data taken from patent US9518018B2, “3-alkoxy, thioalkyl and amino-4-amino-6-(substituted)picolinates and their use as herbicides” (Dow AgroSciences LLC, priority 2011, dated 2016).
Like-named read-outs stand apart in the source and are kept apart here.

How the values were obtained:
[1] = system: ABUTH: velvetleaf (Abutilon theophrasti); assay: Post-Emergent Test I herbicidal activity; type: in vivo
Summary of the method: (§1)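 Post-emergence foliar application to young greenhouse plants at 187 L/ha, five rates down to 1/16× of the top rate. Percent injury is assessed visually two weeks later against untreated plants.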

[2] = system: CHEAL: lambsquarters (Chenopodium album); assay: Post-Emergent Test I herbicidal activity; type: in vivo; conditions: for pest or weed control at 140 g/ha: Table 3, 140 g ai/ha
Summary of the method: as §1

[3] = system: CYPES: yellow nutsedge (Cyperus esculentus); assay: Post-Emergent Test I herbicidal activity; type: in vivo; conditions: post-emergence, 336 h, Table 3, 140 g ai/ha, read-out: Visual Growth Reduction (%)-14 Days after Application CYPES
Summary of the method: as §1

[4] = system: ECHCG: barnyardgrass (Echinochloa crus-galli); assay: Post-Emergent Test I herbicidal activity; type: in vivo; conditions: post-emergence, 336 h, Table 3, 140 g ai/ha, read-out: Visual Growth Reduction (%)-14 Days after Application ECHCG
Summary of the method: (§2)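 Greenhouse plants at first-second true leaf stage sprayed post-emergence by track sprayer at 187 L/ha with compound in acetone/DMSO/water/isopropanol carrier with crop oil concentrate and Triton X-155, top rate plus ½× to 1/16× serial rates. Injury scored visually at 14 d, 0-100% versus untreated plants; GR20, GR50, GR80 from probit analysis.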

[5] = system: EPHHL: wild poinsettia (Euphorbia heterophylla); assay: Post-Emergent Test I herbicidal activity; type: in vivo; conditions: post-emergence, 336 h, Table 3, 140 g ai/ha, read-out: Visual Growth Reduction (%)-14 Days after Application EPHHL
Summary of the method: as §1

[6] = system: ORYSA: rice (Oryza sativa); assay: Post-Emergent Test I herbicidal activity; type: in vivo; conditions: post-emergence, 336 h, Table 3, 140 g ai/ha, read-out: Visual Growth Reduction (%)-14 Days after Application ORYSA
Summary of the method: as §2

ZEAMX: corn (Zea mays) = assay: Post-Emergent Test I herbicidal activity; type: in vivo
Summary of the method: as §1

[7] = Abutilon theophrasti, post-emergence, 336 h, Table 3, 140 g ai/ha, read-out: Visual Growth Reduction (%)-14 Days after Application ABUTH
[8] = Table 4, growth reduction of 20% of plant growth, 14 days after application, probit analysis
[9] = Table 4, growth reduction of 50% of plant growth, 14 days after application, probit analysis
[10] = Table 4, growth reduction of 80% of plant growth, 14 days after application, probit analysis
[11] = Chenopodium album, post-emergence, 336 h, read-out: Visual Growth Reduction (%)-14 Days after Application CHEAL
[12] = Zea mays, post-emergence, 336 h, Table 3, 140 g ai/ha, read-out: Visual Growth Reduction (%)-14 Days after Application ZEAMX

## COc1c(N)cc(-c2ccc(Cl)cc2)nc1C(=O)O [Compound 46]
[1]; [7]
  pest or weed control at 140 g/ha: 100%
[1]; Abutilon theophrasti, post-emergence, 336 h, Table 4, 17.5 g ai/ha, read-out: Visual Growth Reduction (%)-14 Days after Application ABUTH
  pest or weed control at 17.5 g/ha: 80%
[1]; Abutilon theophrasti, post-emergence, 336 h, Table 4, 35 g ai/ha, read-out: Visual Growth Reduction (%)-14 Days after Application ABUTH
  pest or weed control at 35 g/ha: 85%
[1]; Abutilon theophrasti, post-emergence, 336 h, Table 4, 70 g ai/ha, read-out: Visual Growth Reduction (%)-14 Days after Application ABUTH
  pest or weed control at 70 g/ha: 95%
[1]; Abutilon theophrasti, post-emergence, 336 h, Table 4, 140 g ai/ha, read-out: Visual Growth Reduction (%)-14 Days after Application ABUTH
  pest or weed control at 140 g/ha: 100%
[1]; Abutilon theophrasti, post-emergence, 336 h, Table 4, 280 g ai/ha, read-out: Visual Growth Reduction (%)-14 Days after Application ABUTH
  pest or weed control at 280 g/ha: 100%
[1]; [8]
  GR20 ABUTH: <17.5 g ai/ha
[1]; [9]
  GR50 ABUTH: <17.5 g ai/ha
[1]; [10]
  GR80 ABUTH: 19.7 g ai/ha
[2]; [11]
  pest or weed control at 140 g/ha: 100%
[2]; Chenopodium album, post-emergence, 336 h, Table 4, 17.5 g ai/ha, read-out: Visual Growth Reduction (%)-14 Days after Application CHEAL
  pest or weed control at 17.5 g/ha: 90%
[2]; Chenopodium album, post-emergence, 336 h, Table 4, 35 g ai/ha, read-out: Visual Growth Reduction (%)-14 Days after Application CHEAL
  pest or weed control at 35 g/ha: 95%
[2]; Chenopodium album, post-emergence, 336 h, Table 4, 70 g ai/ha, read-out: Visual Growth Reduction (%)-14 Days after Application CHEAL
  pest or weed control at 70 g/ha: 100%
[2]; Chenopodium album, post-emergence, 336 h, Table 4, 280 g ai/ha, read-out: Visual Growth Reduction (%)-14 Days after Application CHEAL
  pest or weed control at 280 g/ha: 100%
[2]; Table 4, 140 g ai/ha
  Visual Growth Reduction (%)-14 Days after Application CHEAL: 100%
[2]; [8]
  GR20 CHEAL: <17.5 g ai/ha
[2]; [9]
  GR50 CHEAL: <17.5 g ai/ha
[2]; [10]
  GR80 CHEAL: <17.5 g ai/ha
[3]
  pest or weed control at 140 g/ha: 0%
[4]
  pest or weed control at 140 g/ha: 15%
[5]
  pest or weed control at 140 g/ha: 100%
[6]
  pest or weed control at 140 g/ha: 0%
ZEAMX: corn (Zea mays); [8]
  GR20 ZEAMX: >280 g ai/ha
ZEAMX: corn (Zea mays); [9]
  GR50 ZEAMX: >280 g ai/ha
ZEAMX: corn (Zea mays); [10]
  GR80 ZEAMX: >280 g ai/ha
ZEAMX: corn (Zea mays); [12]
  pest or weed control at 140 g/ha: 0%
ZEAMX: corn (Zea mays); Zea mays, post-emergence, 336 h, Table 4, 17.5 g ai/ha, read-out: Visual Growth Reduction (%)-14 Days after Application ZEAMX
  pest or weed control at 17.5 g/ha: 0%
ZEAMX: corn (Zea mays); Zea mays, post-emergence, 336 h, Table 4, 35 g ai/ha, read-out: Visual Growth Reduction (%)-14 Days after Application ZEAMX
  pest or weed control at 35 g/ha: 0%
ZEAMX: corn (Zea mays); Zea mays, post-emergence, 336 h, Table 4, 70 g ai/ha, read-out: Visual Growth Reduction (%)-14 Days after Application ZEAMX
  pest or weed control at 70 g/ha: 0%
ZEAMX: corn (Zea mays); Zea mays, post-emergence, 336 h, Table 4, 140 g ai/ha, read-out: Visual Growth Reduction (%)-14 Days after Application ZEAMX
  pest or weed control at 140 g/ha: 0%
ZEAMX: corn (Zea mays); Zea mays, post-emergence, 336 h, Table 4, 280 g ai/ha, read-out: Visual Growth Reduction (%)-14 Days after Application ZEAMX
  pest or weed control at 280 g/ha: 0%
other
  melting point: 165 °C

## COc1c(C(=O)OCc2ccccc2)nc(-c2ccc(Cl)c(OC)c2F)c(F)c1N [Compound 66, benzyl 4-amino-6-(4-chloro-2-fluoro-3-methoxyphenyl)-5-fluoro-3-methoxypicolinate]
[1]; [7]
  pest or weed control at 140 g/ha: 100%
[2]; [11]
  pest or weed control at 140 g/ha: 100%
[3]
  pest or weed control at 140 g/ha: 100%
[4]
  pest or weed control at 140 g/ha: 60%
[5]
  pest or weed control at 140 g/ha: 100%
[6]
  pest or weed control at 140 g/ha: 0%
ZEAMX: corn (Zea mays); [12]
  pest or weed control at 140 g/ha: 80%
other
  melting point: 118 °C
